System: mono-methyl arginine in RKO cells
Test: RKO Methylation Assay (In Cell Western)
Format: cell-based
Conditions: Homo sapiens, 72 hours, percent activation, read-out: RGG ICW EC30
Source text: RKO adherent cells were purchased from ATCC (American Type Culture Collection), Manassas, Va., USA. DMEM/Glutamax medium, penicillin-streptomycin, heat inactivated fetal bovine serum, 0.05% trypsin and D-PBS were purchased from Life Technologies, Grand Island, N.Y., USA. Odyssey blocking buffer, 800CW goat anti-rabbit IgG (H+L) antibody, and Licor Odyssey infrared scanner were purchased from Licor Biosciences, Lincoln, Nebr., USA. Mono-methyl arginine antibody was purchased from Cell Signaling Technology, Danvers, Mass., USA. Methanol was purchased from VWR, Franklin, Mass., USA. 10% Tween 20 was purchased from KPL, Inc., Gaithersburg, Md., USA. DRAQ5 was purchased from Biostatus Limited, Leicestershire, UK.
RKO adherent cells were maintained in growth medium (DMEM/Glutamax medium supplemented with 10% v/v heat inactivated fetal bovine serum and 100 units/mL penicillin-streptomycin) and cultured at 37° C. under 5% CO2.
Cell Treatment, in Cell Western (ICW) for Detection of Mono-Methyl Arginine and DNA Content.
RKO cells were seeded in assay medium at a concentration of 20,000 cells per mL to a poly-D-lysine coated 384 well culture plate (BD Biosciences 356697) with 50 μL per well. Compound (100 nL) from a 96-well source plate was added directly to 384 well cell plate. Plates were incubated at 37° C., 5% CO2 for 72 hours. After three days of incubation, plates were brought to room temperature outside of the incubator for ten minutes and blotted on paper towels to remove cell media. 50 μL of ice cold 100% methanol was added directly to each well and incubated for 30 min at room temperature. After 30 min, plates were transferred to a Biotek EL406 plate washer and washed 2 times with 100 μL per well of wash buffer (1×PBS). Next 60 μL per well of Odyssey blocking buffer (Odyssey Buffer with 0.1% Tween 20 (v/v)) were added to each plate and incubated 1 hour at room temperature. Blocking buffer was removed and 20 μL per well of primary antibody was added (mono-methyl arginine diluted 1:200 in Odyssey buffer with 0.1% Tween 20 (v/v)) and plates were incubated overnight (16 hours) at 4° C. Plates were washed 5 times with 100 μL per well of wash buffer. Next 20 μL per well of secondary antibody was added (1:200 800CW goat anti-rabbit IgG (H+L) antibody, 1:1000 DRAQ5 (Biostatus limited) in Odyssey buffer with 0.1% Tween 20 (v/v)) and incubated for 1 hour at room temperature. The plates were washed 5 times with 100 μL per well wash buffer then 2 times with 100 μL per well of water. Plates were allowed to dry at room temperature then imaged on the Licor Odyssey machine which measures integrated intensity at 700 nm and 800 nm wavelengths. Both 700 and 800 channels were scanned.
First, the ratio for each well was determined by:
Each plate included fourteen control wells of DMSO only treatment (minimum activation) as well as fourteen control wells for maximum activation treated with 20 μM of a reference compound. The average of the ratio values for each control type was calculated and used to determine the percent activation for each test well in the plate. Reference compound was serially diluted three-fold in DMSO for a total of nine test concentrations, beginning at 20 μM. Percent activation was determined and EC30 curves were generated using triplicate wells per concentration of compound.

In the case of `CN(CCN)Cc1n[nH]c2cccc(OCc3ccccc3)c12` [Compound 1], the EC30 is reported as at most 3000 nM.

Reference: patent publication US9943504B2, “Arginine methyltransferase inhibitors and uses thereof” (Epizyme, Inc., priority 2013, dated 2018)
